Test results as given in the supplement of paper PMC10307832.

How the values were obtained:
Assay in all cases: relative viability (nuclei count vs DMSO), 5 days (fraction); higher = more cells survive
[1] = compound: C[C@@]1(C(=O)Nc2ccc(F)nc2)CCCN1c1nc(Nc2cc(C3CC3)n[nH]2)c2cccn2n1 + O=C(c1cc(Cc2n[nH]c(=O)c3ccccc23)ccc1F)N1CCN(C(=O)C2CC2)CC1 [Olaparib] (partner 8 µM)
Outline: (§1)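 Relative viability equals treated-well nuclei counts divided by vehicle-well nuclei counts. Counts came from 4× images of lung cancer cell lines grown in 1536-well plates for 5 days after pin-tool dosing on the day after seeding. Dosing used one drug alone or a fixed anchor-drug dose plus five library-drug doses (not always all listed) in √10 steps, and values are medians of duplicate plates.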

Motesanib + Lapatinib = compound: CC1(C)CNc2cc(NC(=O)c3cccnc3NCc3ccncc3)ccc21 [Motesanib] + CS(=O)(=O)CCNCc1ccc(-c2ccc3ncnc(Nc4ccc(OCc5cccc(F)c5)c(Cl)c4)c3c2)o1 [Lapatinib] (partner 2 µM)
Outline: as §1

[2] = compound: C[C@@]1(C(=O)Nc2ccc(F)nc2)CCCN1c1nc(Nc2cc(C3CC3)n[nH]2)c2cccn2n1 + Cc1cc(Nc2cc(N3CCN(C)CC3)nc(Sc3ccc(NC(=O)C4CC4)cc3)n2)n[nH]1 [Tozasertib] (partner 0.1 µM)
Outline: as §1

[3] = compound: C[C@@]1(C(=O)Nc2ccc(F)nc2)CCCN1c1nc(Nc2cc(C3CC3)n[nH]2)c2cccn2n1 + Cc1nc(NC(=O)N2CCC[C@H]2C(N)=O)sc1-c1ccnc(C(C)(C)C(F)(F)F)c1 [Alpelisib] (partner 2 µM)
Outline: as §1

Cell Line	relative viability ([1]; first compound 0.04 µM)	relative viability ([1]; first compound 0.1265 µM)	relative viability ([1]; first compound 0.4 µM)	relative viability ([1]; first compound 1.265 µM)	relative viability (Motesanib + Lapatinib; first compound 0.01 µM)	relative viability (Motesanib + Lapatinib; first compound 0.03162 µM)	relative viability (Motesanib + Lapatinib; first compound 0.1 µM)	relative viability (Motesanib + Lapatinib; first compound 0.3162 µM)	relative viability (Motesanib + Lapatinib; first compound 1 µM)	relative viability ([2]; first compound 0.04 µM)	relative viability ([2]; first compound 0.1265 µM)	relative viability ([2]; first compound 0.4 µM)	relative viability ([2]; first compound 1.265 µM)	relative viability ([3]; first compound 0.04 µM)	relative viability ([3]; first compound 0.1265 µM)	relative viability ([3]; first compound 0.4 µM)	relative viability ([3]; first compound 1.265 µM)
NCI-H460	0.495	0.334	0.346	0.23	0.961	0.779	0.892	0.974	0.864	0.525	0.487	0.26	0.136	0.401	0.207	0.222	0.389
NCI-H520	0.334	0.33	0.298	0.291	0.714	0.823	0.877	0.882	0.899	0.48	–	0.442	0.423	0.918	0.688	0.926	0.801
NCI-H596	0.714	0.697	0.608	0.571	1.08	1.04	1.06	1.16	1.18	0.883	0.748	0.683	0.71	0.573	0.264	0.356	0.471
NCI-H647	0.607	0.487	0.368	0.505	0.995	1	1.11	1.19	1.09	0.543	0.217	0.159	0.123	1.24	0.957	0.864	0.913
NCI-H650	0.372	0.326	0.281	0.237	0.815	0.932	0.897	1.13	0.888	0.714	0.479	0.523	0.398	1.04	0.731	0.891	0.811
NCI-H661	0.742	0.849	0.778	0.634	0.429	0.563	0.511	0.386	0.49	0.37	0.345	0.369	0.338	0.592	0.665	0.793	0.566
NCI-H727	0.746	0.506	0.476	0.416	0.821	0.902	0.858	1.13	0.787	0.525	0.355	0.352	0.379	0.33	0.24	0.221	0.303
NCI-H838	0.726	0.636	0.555	0.388	0.98	1.03	0.914	1.19	1.02	0.249	0.221	0.166	0.259	1.05	0.819	0.815	0.982
